Source: US12194078B2, “Methods and compositions related to combined treatment with anti-inflammatories and synthetic nanocarriers comprising an immunosuppressant” (Cartesian Therapeutics, Inc., priority 2017, dated 2025)
Where two headings read alike, the source gives them in different places.

Assays:
[1] = system: serum uric acid (sUA); assay: Phase 3 pegloticase trials: AUC of mean sUA levels over time; type: in vivo, human; parameters: AUC of mean sUA levels, responders / AUC of mean sUA levels, non-responders: unit not given beside the values; settings: for Area Under Curve of Mean sUA Levels Over Time Up to 20 Weeks: combined weighted average for responders and non-responders, digitized, extrapolated to 20 weeks
Experimental: For comparison, the Phase 3 pegloticase trials (John S. Sundy, MD, PhD; Herbert S. B. Baraf, MD; Robert A. Yood, MD; et al. Efficacy and Tolerability of Pegloticase for the Treatment of Chronic Gout in Patients Refractory to Conventional Treatment: Two Randomized Controlled Trials. JAMA. 2011; 306(7):711-720) were examined to determine the number of flares per month and the area under the curve (AUC) of mean serum uric acid (sUA) levels over time (up to 20 weeks). Subjects were given 0.6 mg of colchicine once or twice daily (or a nonsteroidal anti-inflammatory drug) one week before first infusion, which continued throughout the study. The study also included prophylaxis against infusion related reactions (IRs) before each infusion. The subjects were administered oral fexofenadine (60 mg) the evening before and again immediately before, the infusion, as well as acetaminophen 1000 mg) and IV hydrocortisone (200 mg) immediately before the infusion. Data points were obtained from Table 2, which presents the biweekly/monthly flare per patient month. Data points were also identified using a graph digitizer for FIG. 2 of the aforementioned reference. The data was extrapolated to 20 weeks. The AUC of mean sUA levels over time (up to 20 weeks) and the flares per patient month were calculated using the combined weighted average for responders and non-responders for sUA AUC. […] Similar calculations were performed to obtain the monthly data.

[2] = system: ADAs; settings: all KRYSTEXXA-treated subjects; cited from earlier work
[3] = system: uric acid; settings: cited from earlier work
[4] = system: patients with chronic gout refractory to conventional treatment; settings: cited from earlier work
[5] = Combination assessment of flare frequency and AUC of mean sUA; type: in vivo, human
Experimental: Anti-drug antibodies (ADAs) can be a complication with treatment with soluble therapeutic proteins, such as the possibility of reduced efficacy. In addition, with treatment of subjects with conditions associate with gout, gout flares can increase when efficacy is increased. […] Specifically, a combination assessment of glare frequency as well as the area under the curve of mean sUA (serum uric acid) levels over time was performed. The finding of both improved efficacy and reduced gout flares was surprising with the SEL-212 study drug and anti-inflammatory treatment.
The tabulated data outlining the comparison in flare frequency between the different medications alongside their efficacy in reducing serum uric acid (sUA) is compiled in Table 4.
In addition, a combination assessment of glare frequency as well as the area under the cruve of mean sUA levels over time show both improved efficacy and reduced gout flares. […] Here, with the SEL-212 study drug and anti-inflammatory treatment, both efficacy and gout flare reduction can be achieved.

[6] = system: patients with hyperuricemia and gout; assay: Phase 3 febuxostat trial: gout flares, first 8 weeks; type: in vivo, human; settings: first 8 weeks with gout flare prophylaxis
Text: (§1) Further comparisons can be made with the primary branded oral uric acid lowering medication, febuxostat. In a phase 3, randomized, double-blind, multi-center trial, the safety and efficacy of febuxostat was studied over 52 weeks (Michael A. Becker, M. D., H. Ralph Schumacher, Jr., M. D., Robert L. Wortmann, M. D., Patricia A. MacDonald, B. S. N., N. P., Denise Eustace, B. A., William A. Palo, M. S., Janet Streit, M. S., and Nancy Joseph-Ridge, M. D. Febuxostat Compared with Allopurinol in Patients with Hyperuricemia and Gout. N Engl J Med 2005; 353:2450-2461Dec. 8, 2005). The comparison period for this analysis included only the first 8 weeks of that study, when gout flare prophylaxis (naproxen or colchicine) was administered. Data points were identified using a graph digitizer for FIG. 1 of the above reference. At a dose of 80 mg/day, 55 out of 255 subjects required treatment for at least one gout flare. This would be the equivalent to a flare frequency of at least 0.22 flares per patient month, and possibly more. At a dose of 120 mg/day, 90 out of 250 subjects required treatment for at least one gout flare, equating to at least a flare frequency of 0.36 flares per patient month, and possibly more.

[7] = system: patients with hyperuricemia and gout; settings: first 8 weeks, cited from earlier work
[8] = system: serum uric acid (sUA); assay: Phase 3 febuxostat trial: AUC of mean sUA levels over time; type: in vivo, human; settings: data points from graph digitizer
Text: as §1, with “The comparison period for this analysis included only the first 8 weeks of that study, when gout flare prophylaxis (naproxen or colchicine) was administered.” left out

[9] = monthly dosing, four weeks after first dose

## Pegloticase
[1]; Pegloticase biweekly group, non-responders, cut to 20 weeks
  AUC of mean sUA levels, non-responders: 102.0
[1]; Pegloticase biweekly group, responders
  AUC of mean sUA levels, responders: 12.3
[1]; Pegloticase biweekly
  Area Under Curve of Mean sUA Levels Over Time Up to 20 Weeks: 64.0
[1]; Pegloticase monthly
  Area Under Curve of Mean sUA Levels Over Time Up to 20 Weeks: 94.4
[2]
  treated subjects that developed ADAs: 89%
[3]; monthly dosing cohorts
  non-responders, share of subjects: 65%
  subjects classified as responders (uric acid below 6 mg/dl for 80% of the time at months three and six): 35%
[3]; [9]
  mean uric acid levels at four weeks, non-responders: above 6 mg/dl
  mean uric acid levels at four weeks, responders: above 4 mg/dl
[4]; Pegloticase biweekly
  Flares per patient month: 0.52 flares per patient month
[4]; Pegloticase monthly
  Flares per patient month: 0.70 flares per patient month
[5]; Pegloticase biweekly
  Flares per patient month * AUC: 33.28
[5]; Pegloticase monthly
  Flares per patient month * AUC: 66.05

## Cc1nc(-c2ccc(OCC(C)C)c(C#N)c2)sc1C(=O)O [Febuxostat, febuxostat]
[6]; Febuxostat 80 mg/day
  Flares per patient month: 0.22 flares per patient month
[6]; Febuxostat 80 mg/day, listed as febuxostat
  Flares per patient month: at least 0.22 flares per patient month
[6]; Febuxostat 120 mg/day
  Flares per patient month: 0.36 flares per patient month
[6]; Febuxostat 120 mg/day, listed as febuxostat
  Flares per patient month: ≥ 0.36 flares per patient month
[7]; Febuxostat 80 mg/day
  subjects that required treatment for at least one gout flare: 55 out of 255
[7]; Febuxostat 120 mg/day
  subjects that required treatment for at least one gout flare: 90 out of 250
[8]; Febuxostat 80 mg/day
  Area Under Curve of Mean sUA Levels Over Time Up to 20 Weeks: 108.3
[8]; Febuxostat 120 mg/day
  Area Under Curve of Mean sUA Levels Over Time Up to 20 Weeks: 93.4
[5]; Febuxostat 80 mg/day
  Flares per patient month * AUC: 23.83
[5]; Febuxostat 120 mg/day
  Flares per patient month * AUC: 33.62
